Results from US11180486B2, “Indolylkojyl methane analogues, process of preparation thereof and use as inhibitor of cancer cells invasion and metastasis” (Council of Scientific & Industrial Research, priority 2017, dated 2021).
Like-named read-outs stand apart in the source and are kept apart here.

Legend:
MDA-MB-231 cells = test: Cell viability (MTT) assay; assay type: cell-based; settings: Homo sapiens
Procedure: (§1) Cell Culture and Reagents. The cell lines used in this study were procured from American Type Culture Collection (ATCC), Manassas, USA. MCF7, T47D and fR2 cells were cultured in RPMI-1640 medium, whereas the MDA-MB-231 cells were grown in Leibovitz's (L-15) medium supplemented with 10% fetal bovine serum (Gibco) and 1% penicillin/streptomycin (Sigma) in a humidified CO2 incubator (New Brunswick Galaxy 170 R) with 5% CO2. Reagents such as phenylmethylsulfonyl fluoride (PMSF), dithiothreitol (DTT), DMSO, crystal violet, and Bradford's reagent were purchased from Sigma-Aldrich. Protease inhibitor cocktail was procured from Roche. The antibodies for human GRP78, Par-4, MMP-2, MMP-9, NF-kB, E-cadherin and TIMP-1 were procured from Santa-Cruz Biotechnology. The β-actin antibody and the secondary antibodies such as anti-rabbit IgG and anti-mouse IgG were procured from Sigma-Aldrich.
(§2) Cell Viability Assay. The cell viability was determined by standard MTT assay method. Briefly, MDA-MB-231, MCF7, T47D and fR2 cells were seeded in 96 well tissue culture plates (Nunc) at a density of 3×10^3 cells per well and treated with varying concentrations of the test compounds in triplicates. DMSO was taken as a vehicle and the final concentration of the DMSO was maintained at 0.2% in the culture medium. Doxorubicin was employed as a positive control. After 44 h of incubation, MTT dye solution was added into the medium and cells were incubated for another 4 h at 37° C. in 5% CO2. The amount of coloured formazan derivatives formed was measured by taking optical density (OD) using a microplate reader (TECAN, Infinite M200 Pro) at 570 nm and the percentage cell viability was calculated. The IC50 values were calculated using GraphPad Prism software (Version 5.0). Table 2. Cytotoxicity (IC50) of all synthesized compounds of invention against panel of human breast cancer cell lines (MDA-MB-231, MCF7, T47D) and normal breast epithelial (fR2) cells.

T47D cells = test: Cell viability (MTT) assay; assay type: cell-based; settings: Homo sapiens, 44 h + 4 h, mean ± SD of three experiments
Procedure: as §1, §2

MCF7 cells = test: Cell viability (MTT) assay; assay type: cell-based; settings: Homo sapiens
Procedure: as §1, §2

MMP-2 = test: Immunoblotting, expression of MMP-2; assay type: cell-based, human; settings: MDA-MB-231 cells; dose dependent
Procedure: (§3) Immunoblotting. MDA-MB-231 and MCF7 cells (0.5×10^6) were plated in six well plates for overnight in a humidified CO2 incubator and then exposed to varying concentrations of 5 (50, 100 and 200 nM) for 24 h along with vehicle (dose dependent study) and 200 nM of 5 for various time points like; 0, 6, 12, 24 and 48 h (time dependent study). Cells were then harvested, washed with chilled PBS and lysed with lysis buffer (HEPES 1 mM, KCl 60 mM, NP-40 0.3%, EDTA 1 mM, DTT 1 mM, sodium orthovanadate 1 mM, PMSF 0.1 mM and cocktail protease inhibitor). The cell extractions were centrifuged at 12,000 rpm for 10 min at 4° C. Protein concentration was measured by the standard Bradford method. An equal amount (20 μg) of protein from each sample was subjected to SDS-PAGE, and proteins were transferred to PVDF membranes (PALL), blocked with 5% (w/v) non-fat milk in PBS containing 0.1% Tween-20, probed with relevant antibodies (1:1000 dilution) for 3 h at room temperature or overnight at 4° C., and subsequently washed and probed with species-specific secondary antibodies coupled to horseradish peroxidase. Immunoreactive proteins were detected by Enhanced Chemiluminescence Plus (Thermo) (Rah et al., 2012, PloS one, 7(9), p.e44039.).

[1] = Pharmacokinetic study, intravenous; assay type: in vivo; settings: mouse, plasma, male Balb/c mice, i.v. 2.5 mg/kg b.w. single dose
Procedure: Pharmacokinetic (PK) Study. Healthy male Balb/c mice (25-30 grams each) were taken to access the PK profile of 5. There were 11 time points for blood collection and 6 animals were there in each sampling time point for maintaining accuracy of the experiment. Animals were administered with 5, intravenously (2.5 mg/kg, b.w.) and control mice were administered with normal saline. A minimum of 100 μL of plasma was collected from each animal at different time points, viz: (0.083, 0.25, 0.5, 1, 2, 4, 6, 8, 12, 16 and 24 h) after dosing with 5 and then acetonitrile (ACN) 400 μL was added to it to precipitate the plasma proteins. The compound was extracted into the solvent, filtered and analyzed by a 6410B Triple quadrupole LC-MS/MS system (Agilent Technologies, USA). Quantification was performed through multiple reaction monitoring (MRM) separately for all the six samples collected individually at each time point by comparing with the standard calibration curve prepared using Agilent Mass Hunter software (version B.04.00). Various PK parameters like; half life (t1/2) (h), C initial C0 (ng/ml), area under the curve AUC(0-∞) (ng*h/ml), Vd (L/kg), Cl (L/h/kg) and Mean Residence Time (h) were calculated using non-compartmental pharmacokinetic data analysis. […] The pharmacokinetic parameters of compound 5 further provide evidence that the molecule has its very good absorption and biodistribution capability through i.v. route of administration.

TIMP-1 = test: Immunoblotting, expression of TIMP-1; assay type: cell-based, human; settings: MDA-MB-231 cells; dose dependent
Procedure: as §3

## CCCCCCCC(c1oc(CO)cc(=O)c1O)c1c[nH]c2ccccc12 (stereo not drawn) [Compound 5, 2-{1-(1H-indol-3-yl)octyl}-3-hydroxy-6-(hydroxymethyl)-4H-pyran-4-one]
MDA-MB-231 cells; MDA-MB-231, 44 h + 4 h, mean ± SD of three experiments, read-out: IC50 values MDA-MB-231
  IC50: 209 ± 265 nM
MDA-MB-231 cells; MDA-MB-231, read-out: IC50 in MDA-MB-231
  IC50: 209 nM
T47D cells
  IC50: 3450 nM
T47D cells; 48 h
  IC50: 3450 nM
MCF7 cells; MCF7, 44 h + 4 h, mean ± SD of three experiments, read-out: IC50 values MCF7
  IC50: 150 ± 95 nM
MCF7 cells; MCF7, read-out: IC50 in MCF7
  IC50: 150 nM
MMP-2
  expression of MMP-2: downregulated
[1]; read-out: Area under curve (AUC0-t)
  AUC(0-t): 395 ng·h/mL
[1]; read-out: Area under curve (AUC0-∞)
  AUC(0-inf): 406 ng·h/mL
[1]; read-out: C initial (C0)
  C0: 1220 ng/mL
[1]; read-out: Clearance (Cl) (converted)
  clearance: 205 mL/min/kg
[1]; read-out: Half life (t1/2) (converted)
  half-life: 25.8 min
[1]; read-out: Mean residence time (MRT)
  MRT: 27 min
[1]; read-out: Volume of distribution (Vd)
  Vd: 7.61 L/kg
TIMP-1
  expression of TIMP-1: induced significantly
